In patent US11312723B2, “Pyranopyrazole and pyrazolopyridine immunomodulators for treatment of autoimmune diseases” (The Rockefeller University, priority 2017, dated 2022) one finds IC50 data, which are given here for 12 compounds.

Usually IC50 stands for the concentration needed to halve the response being measured. A higher IC50 goes with a need for much substance.

For experiment [1], the target named is Human FXIIa (Homo sapiens (Human), UniProt P00748). The experiment is described as follows: Factor XIIa (FXIIa) inhibitory activity, chromogenic substrate (Pefachrome XIIa) cleavage. It counts as biochemical. To be noted: 10 min pre-incubation, Pefachrome XIIa 400 μM.
Experiment [2] concerns the target Human alpha-thrombin (Homo sapiens (Human), UniProt P00734). Kind of experiment: Thrombin counterscreen for selectivity, fluorogenic substrate cleavage. It counts as biochemical. To be noted: 10 min pre-incubation, Boc-Val-Pro-Arg-AMC 20 μM. (The purpose of a counterscreen is to sort out artefacts and off-target activity.)

Human FXIIa, sequence (P00748 373-615): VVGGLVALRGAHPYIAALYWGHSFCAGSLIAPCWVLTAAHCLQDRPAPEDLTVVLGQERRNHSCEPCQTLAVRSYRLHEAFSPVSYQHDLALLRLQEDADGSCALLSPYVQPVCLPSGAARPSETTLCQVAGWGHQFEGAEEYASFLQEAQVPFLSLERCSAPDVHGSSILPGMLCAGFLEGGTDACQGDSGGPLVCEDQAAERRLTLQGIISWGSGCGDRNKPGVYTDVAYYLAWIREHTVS
Human FXIIa, sequence (P00748 20-372 partner): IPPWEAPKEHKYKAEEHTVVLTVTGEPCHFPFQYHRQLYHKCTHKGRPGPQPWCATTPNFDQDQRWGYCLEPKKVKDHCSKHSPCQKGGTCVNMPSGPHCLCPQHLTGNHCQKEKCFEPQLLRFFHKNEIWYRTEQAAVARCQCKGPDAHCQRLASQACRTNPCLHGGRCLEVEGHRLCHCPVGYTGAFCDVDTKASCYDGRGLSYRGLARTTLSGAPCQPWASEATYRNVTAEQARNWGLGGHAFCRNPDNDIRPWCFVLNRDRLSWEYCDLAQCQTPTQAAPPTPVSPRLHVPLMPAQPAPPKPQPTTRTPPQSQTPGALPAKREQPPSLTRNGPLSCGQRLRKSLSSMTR

Take `Nc1nn(C(=O)C2CCNc3ccccc32)c2c1CCN(S(=O)(=O)c1ccccc1)C2` (stereo not drawn) [Example 106, (3-amino-6-(phenylsulfonyl)-4,5,6,7-tetrahydro-pyrazolo[3,4-c]pyridin-1-yl)(1,2,3,4-tetrahydro-quinolin-4-yl)methanone]: the IC50 in experiment [1] is 50000 nM; in experiment [2] it was 70 µM.
On to `CC(=O)N1CCc2c(nn(C(=O)C3CCNc4ccccc43)c2N)C1` (stereo not drawn) [Example 107, 1-(3-amino-2-(1,2,3,4-tetrahydro-quinoline-4-carbonyl)-4,5-dihydro-2H-pyrazolo[3,4-c]pyridin-6(7H)-yl)ethanone], for which the results for the IC50 in experiment [1] and in experiment [2] were 1800 nM and above 40 µM, respectively.
As to `CC(=O)N1CCc2c(N)nn(C(=O)C3CCNc4ccccc43)c2C1` (stereo not drawn) [Example 108, 1-(3-amino-1-(1,2,3,4-tetrahydro-quinoline-4-carbonyl)-4,5-dihydro-1H-pyrazolo[3,4-c]pyridin-6(7H)-yl)ethanone], the values for the IC50 in experiment [1] and in experiment [2] were 80000 nM and above 150 µM, respectively.
On the same counts, the results for `Nc1c2c(nn1C(=O)C1CCNc3ccccc31)CN(C(=O)c1ccccc1)CC2` (stereo not drawn) [Example 109, (3-amino-2-(1,2,3,4-tetrahydro-quinoline-4-carbonyl)-4,5-dihydro-2H-pyrazolo[3,4-c]pyridin-6(7H)-yl)(phenyl)-methanone] are 800 nM and above 75 µM.
As to `Nc1nn(C(=O)C2CCNc3ccccc32)c2c1CCN(C(=O)c1ccccc1)C2` (stereo not drawn) [Example 110, (3-amino-1-(1,2,3,4-tetrahydro-quinoline-4-carbonyl)-4,5-dihydro-1H-pyrazolo[3,4-c]pyridin-6(7H)-yl)(phenyl)-methanone], the IC50 is 60000 nM in experiment [1] and above 65 µM in experiment [2].
For `CNS(=O)(=O)N1CCc2c(nn(C(=O)C3CCNc4ccccc43)c2N)C1` (stereo not drawn) [Example 111, 3-amino-N-methyl-2-(1,2,3,4-tetrahydro-quinoline-4-carbonyl)-4,5-dihydro-2H-pyrazolo[3,4-c]pyridine-6(7H)-sulfonamide], the IC50 in experiment [1] was 2000 nM; in experiment [2], above 50 µM.
The matching figures for `CNS(=O)(=O)N1CCc2c(N)nn(C(=O)C3CCNc4ccccc43)c2C1` (stereo not drawn) [Example 112, 3-amino-N-methyl-1-(1,2,3,4-tetrahydro-quinoline-4-carbonyl)-4,5-dihydro-1H-pyrazolo[3,4-c]pyridine-6(7H)-sulfonamide]: above 70000 nM and above 70 µM.
`CNC(=O)N1CCc2c(N)nn(C(=O)C3CCNc4ccccc43)c2C1` (stereo not drawn) [Example 113, 3-amino-N-methyl-1-(1,2,3,4-tetrahydro-quinoline-4-carbonyl)-4,5-dihydro-1H-pyrazolo[3,4-c]pyridine-6(7H)-carboxamide]: the values for the IC50 in experiment [1] and in experiment [2] were 95000 nM and above 100 µM, respectively.
On the same counts, the results for `COC(=O)N1CCc2c(nn(C(=O)C3CCNc4ccccc43)c2N)C1` (stereo not drawn) [Example 114, methyl 3-amino-2-(1,2,3,4-tetrahydro-quinoline-4-carbonyl)-4,5-dihydro-2H-pyrazolo[3,4-c]pyridine-6(7H)-carboxylate] are 450 nM and above 80 µM.
Consider `Nc1c2c(nn1C(=O)C1CCNc3ccccc31)CN(C(=O)OCc1ccccc1)CC2` (stereo not drawn) [Example 116, benzyl 3-amino-2-(1,2,3,4-tetrahydro-quinoline-4-carbonyl)-4,5-dihydro-2H-pyrazolo[3,4-c]pyridine-6(7H)-carboxylate], for which the IC50 in experiment [1] was 1000 nM; in experiment [2], 17 µM.
The matching figures for `Nc1nn(C(=O)C2CCNc3ccccc32)c2c1CCN(C(=O)OCc1ccccc1)C2` (stereo not drawn) [Example 117, benzyl 3-amino-1-(1,2,3,4-tetrahydro-quinoline-4-carbonyl)-4,5-dihydro-1H-pyrazolo[3,4-c]pyridine-6(7H)-carboxylate]: 45000 nM and 5 µM.
Consider `Nc1c2c(nn1C(=O)C1CCNc3ccccc31)CNCC2` (stereo not drawn) [Example 118, (3-amino-4,5,6,7-tetrahydro-pyrazolo[3,4-c]pyridin-2-yl)(1,2,3,4-tetrahydro-quinolin-4-yl)methanone], for which the IC50 in experiment [1] was 600 nM; in experiment [2], above 100 µM.
